“And” between values parts separate entries of the source, which are not always exact repeats. Equal entries are not always repeated.
Columns and labels:
[1] = test system: SW-480 human colon carcinoma cells; assay: In vivo inhibition of tumor growth, SW-480 xenograft in nude mice; details: for Tumor Weights: 6 mg/kg IV
Protocol: Female athymic nude mice (Crl:NU/NU-nuBR) at 6-8 weeks of age were used in this study. […] Test Articles and vehicle were administered intraperitoneally (IP), Cisplatin was administered intravenously (IV). Tumor measurements were recorded twice weekly using hand-held calipers. Mice were monitored daily for signs of toxicity and morbidity. At study termination, animals were euthanized by carbon dioxide overdose and necropsied for tissue collection.
A total of nine (9) groups were used in this study. Each group contained ten (10) tumor-bearing mice. Groups 1 and 2 contained untreated and vehicle treated negative control mice, respectively. […] Group 9 contained mice that received cisplatin, a standard chemotherapeutic compound as a positive control.
Dosing began the same day that animals were randomly sorted into groups (Study Day 7). Each dose was removed from the dose vial using aseptic technique for each animal and the injection site was wiped with an alcohol swab prior to dose administration. Doses were administered with a 1.0 mL syringe and a 27-gauge×½″ needle for each mouse
The Test Article- and vehicle-treated mice received daily intraperitoneal (IP) injections for 15 days. Cisplatin was administered every other workday for a total of five (5) doses via an intravenous route.
Clinical Observations of each animal were performed and recorded at least once daily for toxicity, morbidity and mortality. Morbidity included signs of illness such as, but not limited to, emaciation, dehydration, lethargy, hunched posture, unkempt appearance, dyspnea and urine or fecal staining.
In accordance with the protocol tumor measurements were taken twice weekly throughout the study by measuring the length and width of tumors with calibrated calipers. […] Tumor weights were calculated using the following formula: mg=(L×W^2)/2. Animals were euthanized either when mean tumor weight was ≧1000 mg per group over two (2) consecutive measurements, or if tumors became ulcerated, impaired the animal's ability to ambulate or obtain food and water.

[2] = molecular target: KDR; assay: KD, B (μM)
Excerpt: Head of the field: KD, B (μM)
Where the first naming reader finds the target: passage: truncated polypeptides tested for binding to KDR-expressing cells.

[3] = test system: VEGF-induced migration of HUVECs; assay: VEGF-induced HUVEC migration assay; assay type: cell-based, human; details: for IC50: VEGF 10 ng/mL, 22 hours, read-out: IC50 for blocking VEGF-induced migration
Protocol: After 22 hours, quantitation of cell migration/invasion was achieved by post-labeling cells in the insert plates with a fluorescent dye and measuring the fluorescence of the invading/migrating cells in a fluorescent plate reader. The VEGF-induced migration was calculated by subtracting the migration that occurred when only basal medium was placed in the lower chamber of the wells.
Serum-starved HUVECs were placed, 100,000 cells per well, into the upper chambers of BD fibronectin-coated FluoroBlok 24-well insert plates. […] After 22 hours, quantitation of cell migration/invasion was achieved by post-labeling cells in the insert plates with a fluorescent dye and measuring the fluorescence of the invading/migrating cells in a fluorescent plate reader. The VEGF-induced migration was calculated for each experimental condition by subtracting the amount of migration that occurred when only basal medium was added to the lower chamber of the wells.
Serum-starved HUVECs were placed, 100,000 cells per well, into the upper chambers of BD fibronectin-coated FluoroBlok 24-well insert plates. […] After 22 hours, quantitation of cell migration/invasion was achieved by post-labeling cells in the insert plates with a fluorescent dye and measuring the fluorescence of the invading/migrating cells in a fluorescent plate reader. VEGF-induced migration was calculated for each experimental condition by subtracting the amount of migration observed in the absence of VEGF.
Serum-starved HUVECs were placed, 100,000 cells per well, into the upper chambers of BD fibronectin-coated FluoroBlok 24-well insert plates. […] After 22 hours, quantitation of cell migration/invasion was achieved by post-labeling cells in the insert plates with a fluorescent dye and measuring the fluorescence of the invading/migrating cells in a fluorescent plate reader. VEGF-stimulated migration was derived by subtracting the basal migration measured in the absence of VEGF.
Serum-starved HUVECs were placed, 100,000 cells per well, into the upper chambers of BD fibronectin-coated FluoroBlok 24-well insert plates. […] After 22 hours, quantitation of cell migration/invasion was achieved by post-labeling cells in the insert plates with a fluorescent dye and measuring the fluorescence of the invading/migrating cells in a fluorescent plate reader.

[4] = molecular target: T1, KDR expressed in transiently-transfected 293H cells (Homo sapiens, UniProt P35968); assay: Binding of biotinylated peptide/neutravidin-HRP complexes to KDR-transfected 293H cells; assay type: cell-based; details: for Reduction of binding of peptide/avidin HRP complex in presence of serum: 40% rat serum, single concentration 2.22-6.66 nM; for Binding of tetrameric peptide/avidin-HRP complexes to KDR-transfected cells: 3.33 nM complex
T1 construct: Both PCR products were digested with Not1 and ligated together to create the full-length receptor; V5-His (of vector pcDNA6/V5-His C); expressed in transfected cells; host or cells: 293H cells (Invitrogen cat. #11631), transient, lipofectamine 2000
T1 sequence (P35968 20-1356): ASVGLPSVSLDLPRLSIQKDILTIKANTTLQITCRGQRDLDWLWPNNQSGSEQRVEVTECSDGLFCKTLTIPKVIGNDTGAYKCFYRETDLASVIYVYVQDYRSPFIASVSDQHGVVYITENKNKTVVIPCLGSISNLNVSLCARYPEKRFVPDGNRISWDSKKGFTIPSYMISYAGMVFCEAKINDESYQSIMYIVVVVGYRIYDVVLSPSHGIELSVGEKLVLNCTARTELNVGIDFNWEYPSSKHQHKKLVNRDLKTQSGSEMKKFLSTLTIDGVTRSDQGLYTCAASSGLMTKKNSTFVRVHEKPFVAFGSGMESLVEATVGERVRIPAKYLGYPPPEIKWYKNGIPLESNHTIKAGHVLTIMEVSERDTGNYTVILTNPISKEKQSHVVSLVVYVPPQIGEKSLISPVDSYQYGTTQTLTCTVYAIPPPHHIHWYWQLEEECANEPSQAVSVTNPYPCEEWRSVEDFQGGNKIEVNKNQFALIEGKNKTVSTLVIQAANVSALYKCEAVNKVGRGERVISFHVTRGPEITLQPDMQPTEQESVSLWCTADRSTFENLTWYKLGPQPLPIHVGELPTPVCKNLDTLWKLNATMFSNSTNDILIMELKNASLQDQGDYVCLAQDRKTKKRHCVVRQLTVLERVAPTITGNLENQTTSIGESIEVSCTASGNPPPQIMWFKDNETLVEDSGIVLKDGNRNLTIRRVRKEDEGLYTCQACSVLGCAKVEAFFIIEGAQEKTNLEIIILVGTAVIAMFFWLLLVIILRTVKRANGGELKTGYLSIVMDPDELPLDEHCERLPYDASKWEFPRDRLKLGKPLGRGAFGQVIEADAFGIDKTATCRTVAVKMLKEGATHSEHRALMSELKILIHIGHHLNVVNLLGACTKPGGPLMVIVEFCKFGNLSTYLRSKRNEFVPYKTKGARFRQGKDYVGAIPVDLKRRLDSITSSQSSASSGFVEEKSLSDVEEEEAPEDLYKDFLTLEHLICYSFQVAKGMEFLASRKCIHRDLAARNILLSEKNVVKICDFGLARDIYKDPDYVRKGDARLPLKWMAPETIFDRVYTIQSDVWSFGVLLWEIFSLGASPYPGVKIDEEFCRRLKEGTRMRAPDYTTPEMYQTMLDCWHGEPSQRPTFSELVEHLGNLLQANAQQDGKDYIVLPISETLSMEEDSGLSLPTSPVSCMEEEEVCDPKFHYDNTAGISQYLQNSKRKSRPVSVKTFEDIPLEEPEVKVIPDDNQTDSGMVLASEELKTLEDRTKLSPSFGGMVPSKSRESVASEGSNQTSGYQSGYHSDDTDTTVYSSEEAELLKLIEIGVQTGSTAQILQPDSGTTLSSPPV

[5] = molecular target: T2, KDR-expressing 293H cells (Homo sapiens, UniProt P35968); assay: Bead-binding assay with peptide-conjugated fluorescent beads; assay type: cell-based; details: KDR- versus mock-transfected 293H cells, 40% FBS
T2 construct: Both PCR products were digested with Not1 and ligated together to create the full-length receptor; V5-His (of vector pcDNA6/V5-His C); expressed in transfected cells; host or cells: 293H cells (Invitrogen cat. #11631), transient, lipofectamine 2000
T2 sequence (P35968 20-1356): as above
Protocol: The following procedures were performed to assess the ability of KDR-binding peptides to bind to KDR-expressing cells. In this procedure, KDR-binding peptides containing SEQ ID NOS:264, 337, 363, and 373 were conjugated to fluorescent beads, and their ability to bind to KDR-expressing 293H cells was assessed. The experiments show these peptides can be used to bind particles such as beads to KDR-expressing sites.
As a positive control, biotinylated anti-KDR antibody was incubated with the Neutravidin-coated beads as above, except that 0.03 mg of the biotinylated antibody preparation in PBS (Gibco #14190-136) was used instead of peptide solution. Beads can be stored at 4° C. until needed for up to 1 week.
From the above bead preparations, 0.12 mL was spun for 10 minutes at 2000 rpm in a microcentrifuge at room temperature. The supernatant was removed and 0.06 mL of MES pH 6.0 was added. Each bead solution was then vortexed and sonicated in a water bath 15 min. […] The plates were then read on a Packard FluoroCount fluorometer at excitation 550 nm/emission 620 nm. […]
To calculate the number of beads bound per well, a standard curve with increasing numbers of the same fluorescent beads was included in each assay plate. The standard curve was used to calculate the number of beads bound per well based on the fluorescence intensity of each well.

[6] = test system: KDR-expressing NMU-induced mammary tumor; assay: Contrast ultrasound with D5-containing microbubbles to monitor sunitinib treatment of NMU-induced tumors; assay type: in vivo, rat; details: for Area *10 (tumor size, fundamental B-mode): sunitinib 40 mg/kg/day from day 106, values multiplied by 10
Protocol: Four (4) female OFA rats (Charles River, Lyon, France) were investigated. At the specific age of 42 days, animals received intraperitoneal injection of N-methyl-N-nitrosourea 50 mg/kg (NMU, Sigma-Aldrich, ref D3254) prepared in 0.9% NaCl, in order to develop a KDR-expressing tumor in the animals (see latency period infra). […] Animals received food and water (tap water) ad libitum.
Stock solution was made weekly and stored at 4° C.
At the level of the tumor site, skin was gently shaved and an ultrasound coupling gel (Aquasonic 100, Parker, USA) was applied between the clinical ultrasound probe and the skin.
The linear probe L12-5 was used.
Vials of a contrast agent containing D5 were reconstituted in 2 ml glucose 5%. […] Emulsification was effected at 12′000 rpm (five minutes). The lyophilizate was reconsistituted as described above. The contrast agent was quickly injected through the catheter placed in the caudal vein at the dose of 2 μl gas per kg. […] Injections were performed at a constant rate of 4 ml/min.
Tumor size was assessed in fundamental-B mode […].
Contrast enhancement was quantified from Dicom files using an in-house quantification and providing, among other parameters, mean echo-signal values in areas of interest as a function of time. The amplitude of the echo signal was expressed as linearized echo amplitude values. Individual frames were analyzed, time-intensity curves were generated and Maximum intensity (Imax) was determined as an index of tumor vascularization and late phase opacification (LPO) was determined at 10 min after injection in the median plane of the tumor.

`N.N.[Cl][Pt][Cl]` [Cisplatin, reference compound] was tested, and the “Mean tumor weight on Study Day 22” value ([1]; Group 9, intravenous, five doses) was 995 mg.

GDSRVCWEDSWGGEVCFRYGGGK [compound 372] gave a Kd [2] of 60 nM.

In the case of SRVCWEDSWGGEVCFRYGGGGK [compound 371], the Kd [2] is reported as 35 nM.

Molecule “Ac-AQDWYYDEILJGRGGRGGRGGK (SEQ ID NO:478) {K[Ac-VCWEDSWGGEVCFRYDPGGGK (SEQ ID NO:337) (JJ-Glut)-NH2]}—NH2 [D17]” has an IC50 [3] of about 250 nM.

With AGPTWCEDDWYYCWLFGTGGGK [SEQ ID NO:277] the “Reduction of binding of peptide/avidin HRP complex in presence of serum” value [4] was “more than 50%”.

In the case of “Ac-AGPTWCEDDWYYCWLFGTGGGK (SEQ ID NO:277){Ac-GDSRVCWEDSWGGEVCFRYDPGGGK (SEQ ID NO:294)[JJ-Glut-NH(CH2)4-(S)—CH(NH2)C(═O)—]—NH2}—NH2 [D25]”, the IC50 [3] is reported as 5 nM.

`N.N.[Cl][Pt][Cl]` [Cisplatnin] was tested, and the “Tumor Weights” value ([1]; day 4 after cell injection) was 34 mg, the “Tumor Weights” value ([1]; day 7 after cell injection) was 160 mg and the “Tumor Weights” value ([1]; day 8 after cell injection) was 173 mg. For the same molecule, the “Tumor Weights” value ([1]; day 11 after cell injection) was 407 mg, the “Tumor Weights” value ([1]; day 14 after cell injection) was 675 mg and the “Tumor Weights” value ([1]; day 20 after cell injection) was 635 mg. The “Tumor Weights” value ([1]; day 21 after cell injection) was 839 mg and the “Tumor Weights” value ([1]; day 22 after cell injection) was 995 mg.

In the case of VCWEDSWGGEVCFGGGK [compound 368], the Kd [2] is reported as 910 nM.

For “Ac-AQDWYYDEILSMADQLRHAFLSGGGGGK [SEQ ID NO:356]”, the “Reduction of binding of peptide/avidin HRP complex in presence of serum” value [4] was “not significantly affected”.

“GDSRVCWEDSWGGEVCFRYDPGGGK [SEQ ID NO:294]” was tested, and the “Binding of tetrameric peptide/avidin-HRP complexes to KDR-transfected cells” value [4] was “bound to KDR-transfected cells significantly better than to mock-transfected cells”, the “Reduction of binding of peptide/avidin HRP complex in presence of serum” value [4] was “not significantly affected” and the “Binding of peptide-conjugated fluorescent beads, JJ spacer” value [5] was “significantly improved the specific binding to KDR”.

Work on `CC(C)c1cc(/C=C(\C#N)C(=O)NCCCc2ccccc2)cc(C(C)C)c1O` [SU-1498, reference compound] yielded a VEGF-induced migration blocked ([3]; 3 micromolar) of 47%.

With `CCN(CC)CCNC(=O)c1c(C)[nH]c(/C=C2\C(=O)Nc3ccc(F)cc32)c1C` [sunitinib, Sunitinib] the “Change of tumor size as a percentage of the tumor prior sunitinib treatment” value ([6]; 48 hours after treatment, 40 mg/kg/day oral, individual rats, 40 mg/kg/day) was −4.6% and −0.7% and 30%, the “Change of Imax” value ([6]; 48 hours after treatment, individual rats no. 1, 2, 3) was −11% and +23% and +11% and the “Area *10 (tumor size, fundamental B-mode)” value ([6]; rat no. 1, day 108) was 20.80. For the same molecule, the “Area *10 (tumor size, fundamental B-mode)” value ([6]; rat no. 1, day 115) was 11.00, the “Area *10 (tumor size, fundamental B-mode)” value ([6]; rat no. 1, day 116) was 10.10 and the “Area *10 (tumor size, fundamental B-mode)” value ([6]; rat no. 2, day 108) was 26.70. For the same molecule, the “Area *10 (tumor size, fundamental B-mode)” value ([6]; rat no. 2, day 109) was 20.20, the “Area *10 (tumor size, fundamental B-mode)” value ([6]; rat no. 3, day 108) was 7.5 and the “Area *10 (tumor size, fundamental B-mode)” value ([6]; rat no. 3, day 114) was 2.9. For the same molecule, the “Area *10 (tumor size, fundamental B-mode)” value ([6]; rat no. 3, day 116) was 3.0.

“5 CF-Gly-N{[CH2CH2C(═O)-Gly-N(CH2CH2C(═O)-Adoa-Thr-Lys-Pro-Pro-Arg-OH]2}2 [Adjunct A]” was tested, and the “Block of VEGF-induced migration” value ([3]; 100 nM alone) was “not by 100 nM Adjunct A alone”.

Work on GDSRVCWEDSWGGEVCFGGGK [compound 369] yielded a Kd [2] of 1300 nM.

In the case of AGPKWCEEDWYYCMITGTGGGK [SEQ ID NO:264], the “Binding of tetrameric peptide/avidin-HRP complexes to KDR-transfected cells” value [4] is reported as “bound to KDR-transfected cells significantly better than to mock-transfected cells”, the “Reduction of binding of peptide/avidin HRP complex in presence of serum” value [4] is reported as “not significantly affected” and the “Binding of peptide-conjugated fluorescent beads, JJ spacer” value [5] is reported as “enhanced binding to KDR cells”.

— patent US9408926B2, “KDR and VEGF/KDR binding peptides and their use in diagnosis and therapy” (Bracco Suisse S.A., priority 2002, dated 2016)
